Test results from patent publication US20250136568A1, “FUSED HETEROCYCLIC COMPOUNDS AS PI3KALPHA INHIBITORS” (Nanjing Zenshine Pharmaceuticals Co., Ltd., priority 2021, published 2025).
Read-outs that look alike come from different tables or passages of the source.

Columns and labels:
[1] = tested on: PI3Kα H1047R mutation cell line T-47D; experiment: Cell Proliferation IC50 Assay (CellTiter-Glo), T-47D; assay type: cell-based; conditions: Homo sapiens, T47D (H1047R), 72 hours, CellTiter-Glo, read-out: IC50 (μM) T47D
Excerpt: (§1) PI3Kα H1047R mutation cell line T-47D and MDA-MB-453, E545K mutation cell line MDA-MB-361 and PI3Kα wide type cell line SK-BR-3 were purchased from Cobioer Biotech (cat. no CBP60397, CBP60386, CBP60383 and CBP60413 respectively). The CellTiter-Glo Direct Cell Proliferation Assay Kit was purchased from Prornega (cat. No. G7573)
(§2) For cell proliferation assay in each cell line: • a. Prepare complete medium (R PMI 1640, DMEM or McCoys): Add FBS and appropriate additives according to the information sheet provided by the vendor. Mix gently. • b. Prepare single cell suspension and count the cell numbers and adjust cells to appropriate density. • c. Add 80 μL of cell suspension to 96-well opaque-walled clear bottom plates according to the planned plate layout and place the plates in the CO2 incubator overnight. • d. Prepare intermediate plate: 10 μl of diluted test compounds or staurosporine solution (200×) is added to a 96 deep well plate. Then 390 μl of culture medium without FBS is added to the respective wells. • e. Transfer 20 μL of the solutions from the above intermediate plate to the wells of the plate prepared containing 80 μL of the culture medium and cells. The total dilution is 200 folds. • f. The cells were then incubated at 5% CO2, 37° C. for 72 hours. • g. Equilibrate the plate and its contents to room temperature for approximately 30 minutes. • h. Add 100 μL of CellTiter-Glo reagent to the assay plate • i. Mix contents for 10 minutes on an orbital shaker to induce cell lysis. • j. Allow the plate to incubate at room temperature for 10 minutes to stabilize luminescent signal, • k. Paste the clear bottom with white back seal and record luminescence with Varioskan LUX plate reader.
(§3) Inhibition % and IC50 value were calculated by the formula described below: […]

[2] = tested on: PI3Kα wide type cell line SK-BR-3; experiment: Cell Proliferation IC50 Assay (CellTiter-Glo), SK-BR-3; assay type: cell-based; conditions: Homo sapiens; SK-BR-3 (PI3Kα wild type), 72 hours, CellTiter-Glo; read-out: IC50 (μM) SK-BR-3
Excerpt: as §1, §2, §3

SMILES	IC50 ([1]; T47D, 72 h) [µM]	IC50 [2] [µM]	IC50 [1] [µM]
Cc1cc(C(C)Nc2ccccc2C(=O)O)c2oc(-c3cc(F)c4nn(C)cc4c3)cc(=O)c2c1 (stereo not drawn) [Example 85, 2-((1-(2-(7-fluoro-2-methy-2H-indazol-5-yl)-6-methyl-4-oxo-4H-chromen-8-yl)ethyl)amino)benzoic acid]	0.13	> 10	–
CC(Nc1ccccc1C(=O)O)c1cc(F)cc2c(=O)cc(-c3ccc4nn(C)cc4c3)oc12 (stereo not drawn) [Example 101, 2-((1-(6-fluoro-2-(2-methyl-2H-indazol-5-yl)-4-oxo-4H-chromen-8-yl)ethyl)amino)benzoic acid]	0.29	> 10	–
Cc1cc([C@H](C)Nc2ccccc2C(=O)O)c2oc(-c3ccc(-c4cnn(C)c4)cc3)cc(=O)c2c1 (single isomer, unassigned) [Example 95B]	0.99	> 10	–
Cc1cc(C(C)Nc2ccccc2C(=O)O)c2oc(-c3ccc4c(=O)n(C)cnc4c3)cc(=O)c2c1 (stereo not drawn) [Example 121, 2-((1-(6-methyl-2-(3-methyl-4-oxo-3,4-dihydroquinazolin-7-yl)-4-oxo-4H-chromen-8-yl)ethyl)amino)benzoic acid]	0.76	> 10	–
CC(=O)N1CCN(C(C)c2ccc(-c3oc4c([C@@H](C)Nc5ccccc5C(=O)O)cc(C)cc4c(=O)c3C)cc2)CC1 (stereo partly drawn) [Example 138, 2-(((1R)-1-(2-(4-(1-(4-acetylpiperazin-1-yl)ethyl)phenyl)-3,6-dimethyl-4-oxo-4H-chromen-8-yl)ethyl)amino)benzoic acid]	0.083	> 10	–
Cc1cc([C@@H](C)Nc2ccccc2C(=O)O)c2oc(-c3ccc(-c4cn(C)cn4)nc3)c(C)c(=O)c2c1 [Example 163]	–	> 10	0.12
Cc1cc(C(C)Nc2ccccc2C(=O)O)c2nc(-c3ccc4nn(C)cc4c3)cc(=O)n2c1 (stereo not drawn) [Example 108, 2-((1-(7-methyl-2-(2-methyl-2H-indazol-5-yl)-4-oxo-4H-pyrido[1,2-a]pyrimidin-9-yl)ethyl)amino)benzoic acid]	0.84	> 10	–
Cc1cc([C@@H](C)Nc2ccccc2C(=O)O)c2oc(-c3ccc(CN4CCCC4=O)cc3)c(C)c(=O)c2c1 [Example 135, (R)-2-((1-(3,6-dimethyl-4-oxo-2-(4-((2-oxopyrrolidin-1-yl)methyl)phenyl)-4H-chromen-8-yl)ethyl)amino)benzoic acid]	0.18	> 10	–
Cc1cc(C(C)Nc2ccccc2C(=O)O)c2oc(-c3ccc4cnccc4c3)cc(=O)c2c1 (stereo not drawn) [Example 36, 2-((1-(2-(isoquinolin-6-yl)-6-methyl-4-oxo-4H-chromen-8-yl)ethyl)amino)benzoic acid]	0.2	> 10	–
Cc1cc(C(C)Nc2ccccc2C(=O)O)c2oc(-c3ccc4c(c3)CN(C)C4)cc(=O)c2c1 (stereo not drawn) [Example 94, 2-((1-(6-methyl-2-(2-methylisoindolin-5-yl)-4-oxo-4-chromen-8-yl)ethyl)amino)benzoic acid]	1.02	> 10	–
Cc1cc(C(C)Nc2ccccc2C(=O)O)c2oc(C3=CCN(C(C)C(F)(F)F)CC3)cc(=O)c2c1 (stereo not drawn) [Example 17, 2-((1-(6-methyl-4-oxo-2-(1-(1,1,1-trifluoropropan-2-yl)-1,2,3,6-tetrahydropyridin-4-yl)-4H-chromen-8-yl)ethyl)amino)benzoic acid]	2.07	> 10	–
Cc1cc(C(C)Nc2ccccc2C(=O)O)c2oc(-c3cnc4nn(C)cc4c3)cc(=O)c2c1 (stereo not drawn) [Example 82, 2-((1-(6-methyl-2-(2-methyl-2H-pyrazolo[3,4-b]pyridin-5-yl)-4-oxo-41H-chromen-8-yl)ethyl)amino)benzoic acid]	> 10	> 10	–
Cc1cc([C@@H](C)Nc2ccccc2C(=O)O)c2oc(-c3ccc(OC4CCN(C)C4)cc3)c(C)c(=O)c2c1 (stereo partly drawn) [Example 160, 2-(((1R)-1-(3,6-dimethyl-2-(4-((1-methylpyrrolidin-3-yl)oxy)phenyl)-4-oxo-4H-chromen-8-yl)ethyl)amino)benzoic acid]	–	> 10	0.065
Cc1cc(C(C)Nc2ccccc2C(=O)O)c2oc(-c3cnn(C4COC4)c3)cc(=O)c2c1 (stereo not drawn) [Example 40, 2-((1-(6-methyl-2-(1-(oxetan-3-yl)-1H-pyrazol-4-yl)-4-oxo-4H-chromen-8-yl)ethyl)amino)benzoic acid]	2.51	> 10	–
Cc1cc(C(C)Nc2ccccc2C(=O)O)c2oc(-c3cc4ccncc4[nH]3)cc(=O)c2c1 (stereo not drawn) [Example 117, 2-((1-(6-methyl-4-oxo-2-(1H-pyrrolo[2,3-c]pyridin-2-yl)-4H-chromen-8-yl)ethyl)amino)benzoic acid]	0.28	> 10	–
Cc1cc(C(C)Nc2ccccc2C(=O)O)c2oc(-c3cc4cnccc4[nH]3)cc(=O)c2c1 (stereo not drawn) [Example 116]	0.97	> 10	–

The next lines start with results.

IC50 ([1]; T47D, 72 h) [µM]	IC50 [2] [µM]	SMILES	IC50 [1] [µM]
5.06	> 10	COC(=O)N1CCN(c2ccc(-c3oc4c([C@H](C)Nc5ccccc5C(=O)O)cc(C)cc4c(=O)c3C)cn2)CC1 (single isomer, unassigned) [Example 155B]	–
0.067	6.5	Cc1cc([C@@H](C)Nc2ccccc2C(=O)O)c2oc(-c3ccc(N4CCC(N(C)C)CC4)cc3)c(C)c(=O)c2c1 [Example 161, (R)-2-((1-(2-(4-(4-(dimethylamino)piperidin-1-yl)phenyl)-3,6-dimethyl-4-oxo-4H-chromen-8-yl)ethyl)amino)benzoic acid]	–
0.13	> 10	Cc1cc(C(C)Nc2ccccc2C(=O)NO)c2oc(-c3ccc4nn(C)cc4c3)c(C)c(=O)c2c1 (stereo not drawn) [Example 156, 2-((1-(3,6-dimethyl-2-(2-methyl-2H-indazol-5-yl)-4-oxo-41H-chromen-8-yl)ethyl)amino)-N-hydroxybenzamide]	–
0.16	8.68	Cc1cc([C@@H](C)Nc2ccc(Cl)nc2C(=O)O)c2oc(-c3ccc(-c4cnn(C)c4)nc3)c(C)c(=O)c2c1 [Example 186, (R)-6-chloro-3-((1-(3,6-dimethyl-2-(6-(1-methyl-1H-pyrazol-4-yl)pyridin-3-yl)-4-oxo-4H-chromen-8-yl)ethyl)amino)picolinic acid]	–
0.11	> 10	Cc1cc([C@@H](C)Nc2ccccc2C(=O)O)c2oc(-c3ccc(N4CC[C@H](N(C)C)C4)cc3)c(C)c(=O)c2c1 [Example 169, 2-(((R)-1-(2-(4-((S)-3-(dimethylamino)pyrrolidin-1-yl)phenyl)-3,6-dimethyl-4-oxo-4H-chromen-8-yl)ethyl)amino)benzoic acid]	–
3.43	> 10	Cc1cc([C@@H](C)Nc2ccccc2C(=O)NS(=O)(=O)C2CC2)c2oc(-c3ccc4nn(C)cc4c3)cc(=O)c2c1 [Example 157, (R)—N-(cyclopropylsulfonyl)-2-((1-(6-methyl-2-(2-methyl-2H-indazol-5-yl)-4-oxo-4H-chromen-8-yl)ethyl)amino)benzamide]	–
1.6	> 10	CC(=O)N1CC(c2ccc(-c3cc(=O)c4cc(C)cc(C(C)Nc5ccccc5C(=O)O)c4o3)cc2)C1 (stereo not drawn) [Example 145, 2-((1-(2-(4-(1-acetylazetidin-3-yl)phenyl)-6-methyl-4-oxo-4H-chromen-8-yl)ethyl)amino)benzoic acid]	–
0.092	> 10	Cc1cc([C@@H](C)Nc2ccccc2C(=O)O)c2oc(-c3ccc(N4CCC[C@H](N(C)C)C4)cc3)c(C)c(=O)c2c1 [Example 168, 2-(((R)-1-(2-(4-((S)-3-(dimethylamino)piperidin-1-yl)phenyl)-3,6-dimethyl-4-oxo-41H-chromen-8-yl)ethyl)amino)benzoic acid]	–
0.1	> 10	Cc1cc([C@@H](C)Nc2ccccc2C(=O)O)c2oc(-c3ccc(OCCN(C)C)nc3)c(C)c(=O)c2c1 [Example 192, (R)-2-((1-(2-(6-(2-(dimethylamino)ethoxy)pyridin-3-yl)-3,6-dimethyl-4-oxo-4H-chromen-8-yl)ethyl)amino)benzoic acid]	–
0.23	> 10	Cc1cc([C@@H](C)Nc2ccccc2C(=O)O)c2oc(-c3ccc(-c4cn(C)cn4)cc3)c(C)c(=O)c2c1 [Example 162, (R)-2-((1-(3,6-dimethyl-2-(4-(1-methyl-1H-imidazol-4-yl)phenyl)-4-oxo-4H-chromen-8-yl)ethyl)amino)benzoic acid]	–
5.5	> 10	Cc1cc([C@@H](C)Nc2ccccc2C(=O)NS(C)(=O)=O)c2oc(-c3ccc4nn(C)cc4c3)cc(=O)c2c1 [Example 158, (R)-2-((1-(6-methyl-2-(2-methyl-2H-indazol-5-yl)-4-oxo-4H-chromen-8-yl)ethyl)amino)-N-(methylsulfonyl)benzamide]	–
